According to the supplement of paper PMC11061612:

Columns and labels:
Assay in all cases: combination Emax (second highest fraction inhibited in the dose matrix, 72 h); higher = more inhibition; extreme values may be limits of the assay
[1] = test system: KU-19-19 (Bladder Carcinoma)
Method in brief: (§1)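 Cell lines grown in DMEM/F12 or RPMI with 10% FBS were plated in 1536-well plates and held 24 hours at 37°C, 5% CO2 before 72 hours of exposure to two-drug dose matrices, with DMSO typically at 0.2%. CellTiter-Glo 2.0 luminescence gave viability, which was converted to inhibition. Vehicle wells were set to 0 and blank wells to 1. Combination Emax is the second-highest inhibition in the matrix, and Bliss excess is the observed combination effect minus the expected EA + EB − EA·EB, where EA and EB are the single-agent effects.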

[2] = test system: NCI-N87 (Gastric Carcinoma)
Method in brief: as §1

[3] = test system: SNU-C1 (Colorectal Carcinoma)
Method in brief: as §1

[4] = test system: SCC-3 (B-Cell Non-Hodgkin's Lymphoma)
Method in brief: as §1

[5] = test system: H-EMC-SS (Chondrosarcoma)
Method in brief: as §1

[6] = test system: EBC-1 (Squamous Cell Lung Carcinoma)
Method in brief: as §1

NH-12 (Neuroblastoma) = test system: NH-12 (Neuroblastoma)
Method in brief: as §1

BT-20 (Breast Carcinoma) = test system: BT-20 (Breast Carcinoma)
Method in brief: as §1

GI-1 (Glioblastoma) = test system: GI-1 (Glioblastoma)
Method in brief: as §1

[7] = test system: ASH-3 (Thyroid Gland Carcinoma)
Method in brief: as §1

[8] = test system: SCC-9 (Oral Cavity Carcinoma)
Method in brief: as §1

[9] = test system: KP-2 (Pancreatic Carcinoma)
Method in brief: as §1

RPMI-7951 (Melanoma) = test system: RPMI-7951 (Melanoma)
Method in brief: as §1

[10] = test system: KLE (Endometrial Carcinoma)
Method in brief: as §1

A704 (Kidney Carcinoma) = test system: A704 (Kidney Carcinoma)
Method in brief: as §1

[11] = test system: BV-173 (Chronic Myelogenous Leukemia)
Method in brief: as §1

[12] = test system: KINGS-1 (Low Grade Glioma)
Method in brief: as §1

[13] = test system: PF-382 (T-Lymphoblastic Leukemia)
Method in brief: as §1

[14] = test system: NCI-H2347 (Lung Adenocarcinoma)
Method in brief: as §1

[15] = test system: HSC-2 (Oral Cavity Carcinoma)
Method in brief: as §1

Structure (SMILES) | combination Emax [1] | combination Emax [2] | combination Emax [3] | combination Emax [4] | combination Emax [5] | combination Emax [6] | combination Emax (NH-12 (Neuroblastoma)) | combination Emax (BT-20 (Breast Carcinoma)) | combination Emax (GI-1 (Glioblastoma)) | combination Emax [7] | combination Emax [8] | combination Emax [9] | combination Emax (RPMI-7951 (Melanoma)) | combination Emax [10] | combination Emax (A704 (Kidney Carcinoma)) | combination Emax [11] | combination Emax [12] | combination Emax [13] | combination Emax [14] | combination Emax [15]
CN(CCO)CC[C@H](CSc1ccccc1)Nc1ccc(S(=O)(=O)NC(=O)c2ccc(N3CCC([C@@H](O)c4ccccc4-c4ccc(Cl)cc4)CC3)cc2)cc1S(=O)(=O)C(F)(F)F [AZD4320] + C1CN(CCC1(C(=O)N[C@@H](CCO)C2=CC=C(C=C2)Cl)N)C3=NC=NC4=C3C=CN4 [Capivasertib] (first compound max 1 µM, 7x7, partner max 3 µM) | 0.174 | 0.571 | 0.775 | 0.257 | 0.753 | 0.935 | 0.886 | 0.84 | 0.627 | 0.59 | 0.21 | 0.842 | 0.54 | 0.206 | 0.392 | 0.962 | 0.49 | 0.98 | 0.362 | 0.362
COc1nnc2ccc(N3CCC(c4ccc(OCCN5CCN(C)C(=O)[C@H]5C)cc4)CC3)nn12 [AZD5153] + Cn1cnc2c(F)c(Nc3ccc(Br)cc3Cl)c(C(=O)NOCCO)cc21 [Selumetinib] (first compound max 1 µM, 7x7, partner max 10 µM) | 1 | 0.567 | 0.83 | 0.93 | 0.368 | 1 | 0.729 | 0.302 | 0.705 | 0.713 | 0.75 | 0.54 | 0.677 | 0.631 | 0.855 | 0.936 | 0.323 | 0.903 | 0.6 | 0.737
CC(=O)Nc1cccc(-n2c(=O)n(C3CC3)c(=O)c3c(Nc4ccc(I)cc4F)n(C)c(=O)c(C)c32)c1 [Trametinib] + Cc1nc(-c2cn3c(n2)-c2ccc(-c4cnn(C(C)(C)C(N)=O)c4)cc2OCC3)n(C(C)C)n1 [Taselisib] (first compound max 1 µM, 7x7, partner max 10 µM) | 1 | 0.913 | 0.79 | 0.736 | 0.991 | 1 | 0.841 | 1 | 0.766 | 0.962 | 0.954 | 0.74 | 0.931 | 0.619 | 0.892 | 0.854 | 0.894 | 0.905 | 0.618 | 1
Cc1c2c(nn1C)CSCc1cc(n(C)n1)CSc1cc(c3ccccc3c1)OCCCc1c(C(=O)O)n(C)c3c-2c(Cl)ccc13 [AZD5991] + Cc1cc2ncnn2cc1Nc1ncc2c(n1)n(C1CCOCC1)c(=O)n2C [AZD7648] (first compound max 1 µM, 7x7, partner max 10 µM) | 0.26 | 0.492 | 0.412 | 0.308 | 0.479 | 0.291 | 0.226 | 0.694 | 0.672 | 0.358 | 0.26 | 0.2 | 0.91 | 0.342 | 0.259 | 0.946 | 0.326 | 0.353 | 0.287 | 0.844
Cn1cnc2c(F)c(Nc3ccc(Br)cc3Cl)c(C(=O)NOCCO)cc21 [Selumetinib] + CCN(CCO)CCCOc1ccc2c(Nc3cc(CC(=O)Nc4cccc(F)c4)[nH]n3)ncnc2c1 [AZD2811] (first compound max 10 µM, 7x7, partner max 1 µM) | 0.955 | 0.305 | 0.723 | 0.43 | 0.263 | 0.964 | 0.729 | 0.474 | 0.286 | 0.391 | 0.494 | 0.468 | 0.425 | 0.286 | 0.178 | 0.952 | 0.22 | 0.911 | 0.312 | 0.376
COc1cc2c(cc1OCCCCCOc1cc3c(cc1OC)C(=O)N1C=C(C)C[C@H]1C=N3)N=C[C@@H]1CC(C)=CN1C2=O [SG3199] + O=C(c1cc(Cc2n[nH]c(=O)c3ccccc23)ccc1F)N1CCN(C(=O)C2CC2)CC1 [Olaparib] (first compound max 0.001 µM, 7x7, partner max 10 µM) | 0.247 | 0.125 | 0.0546 | 0.437 | 0.0837 | 0.183 | 0.319 | 0.154 | 0.175 | 0.0979 | 0.0776 | 0.13 | 0.203 | 0.184 | 0.202 | 0.932 | 0.147 | 0.259 | 0.181 | 0.116
Cc1cc2ncnn2cc1Nc1ncc2c(n1)n(C1CCOCC1)c(=O)n2C [AZD7648] + CCN(CCO)CCCOc1ccc2c(Nc3cc(CC(=O)Nc4cccc(F)c4)[nH]n3)ncnc2c1 [AZD2811] (first compound max 10 µM, 7x7, partner max 1 µM) | 0.489 | 0.44 | 0.351 | 0.338 | 0.545 | 0.18 | 0.667 | 0.426 | 0.425 | 0.324 | 0.342 | 0.0095 | 0.476 | 0.382 | 0.247 | 0.964 | 0.353 | 0.851 | 0.302 | 0.547
NC1(C(=O)N[C@@H](CCO)c2ccc(Cl)cc2)CCN(c2ncnc3[nH]ccc23)CC1 [Capivasertib] + C[C@@H]1COCCN1C2=NC(=NC(=C2)C3(CC3)[S@](=N)(=O)C)C4=C5C=CNC5=NC=C4 [AZD6738] (first compound max 10 µM, 7x7, partner max 10 µM) | 0.69 | 0.781 | 0.533 | 0.938 | 0.526 | 0.601 | 0.832 | 0.771 | 0.944 | 0.697 | 0.412 | 0.17 | 0.892 | 0.59 | 0.524 | 0.956 | 0.425 | 0.974 | 0.327 | 0.701
COc1cccc(OCCCN)c1-c1cc(Nc2cnc(C#N)cn2)n[nH]1 [Prexasertib] + CCc1c2c(nc3ccc(O)cc13)-c1cc3c(c(=O)n1C2)COC(=O)[C@]3(O)CC [SN-38] (first compound max 1 µM, 7x7, partner max 0.3 µM) | 0.959 | 0.816 | 0.745 | 1 | 0.574 | 0.953 | 0.935 | 0.965 | 1 | 0.989 | 0.561 | 0.837 | 0.997 | 0.593 | 0.749 | 0.967 | 0.691 | 0.994 | 0.879 | 0.95
CC1(C)CCC(CN2CCN(c3ccc(C(=O)NS(=O)(=O)c4ccc(NCC5CCOCC5)c([N+](=O)[O-])c4)c(Oc4cnc5[nH]ccc5c4)c3)CC2)=C(c2ccc(Cl)cc2)C1 [Venetoclax] + Cc1cc2ncnn2cc1Nc1ncc2c(n1)n(C1CCOCC1)c(=O)n2C [AZD7648] (first compound max 1 µM, 7x7, partner max 10 µM) | 0.225 | 0.354 | 0.227 | 0.214 | 0.327 | 0.26 | 0.538 | 0.374 | 0.238 | 0.263 | 0.194 | 0.175 | 0.334 | 0.444 | 0.32 | 0.811 | 0.329 | 0.355 | 0.194 | 0.304
Cc1cc2ncnn2cc1Nc1ncc2c(n1)n(C1CCOCC1)c(=O)n2C [AZD7648] + C[C@@H]1COCCN1C2=NC(=NC(=C2)C3(CC3)[S@](=N)(=O)C)C4=C5C=CNC5=NC=C4 [AZD6738] (first compound max 10 µM, 7x7, partner max 10 µM) | 0.782 | 0.718 | 0.38 | 0.857 | 0.475 | 0.293 | 0.863 | 0.479 | 0.888 | 0.509 | 0.353 | 0.0981 | 0.912 | 0.419 | 0.395 | 0.97 | 0.283 | 0.858 | 0.401 | 0.596
Cn1cnc2c(F)c(Nc3ccc(Br)cc3Cl)c(C(=O)NOCCO)cc21 [Selumetinib] + C=CCn1c(=O)c2cnc(Nc3ccc(N4CCN(C)CC4)cc3)nc2n1-c1cccc(C(C)(C)O)n1 [AZD1775] (first compound max 10 µM, partner max 1 µM) | 0.917 | 0.712 | 0.627 | 0.896 | 0.23 | 0.923 | 0.891 | 0.695 | 0.74 | 0.367 | 0.518 | 0.54 | 0.741 | 0.539 | 0.488 | 0.925 | 0.361 | 0.974 | 0.468 | 0.372
CC1(C)CCC(CN2CCN(c3ccc(C(=O)NS(=O)(=O)c4ccc(NCC5CCOCC5)c([N+](=O)[O-])c4)c(Oc4cnc5[nH]ccc5c4)c3)CC2)=C(c2ccc(Cl)cc2)C1 [Venetoclax] + Cn1cnc2c(F)c(Nc3ccc(Br)cc3Cl)c(C(=O)NOCCO)cc21 [Selumetinib] (first compound max 1 µM, 7x7, partner max 3 µM) | 0.748 | 0.242 | 0.467 | 0.205 | 0.341 | 0.768 | 0.777 | 0.231 | 0.179 | 0.294 | 0.386 | 0.455 | 0.424 | 0.276 | 0.158 | 0.906 | 0.262 | 0.18 | 0.344 | 0.161
